Test results published in patent publication US11236087B2, “Highly active pyrazolo-piperidine substituted indole-2-carboxamides active against the hepatitis B virus (HBV)” (AiCuris GmbH & Co. KG, priority 2017, dated 2022).

Assays:
HBV core protein = biological target: T1, HBV core protein (UniProt P03146); assay: Biochemical capsid assembly assay (fluorescence quenching); parameters: species or system hepatitis B virus; details: read-out: Assembly Activity (IC50); BODIPY-FL labelled core protein, 300 μM NaCl, read 6 min after start
T1 construct: fused on or other part: BODIPY-FL maleimide label on the C-terminal Cys150
Description: Biochemical Capsid Assembly Assay
The screening for assembly effector activity was done based on a fluorescence quenching assay published by Zlotnick et al. (2007). The C-terminal truncated core protein containing 149 amino acids of the N-terminal assembly domain fused to a unique cysteine residue at position 150 and was expressed in E. coli using the pET expression system (Merck Chemicals, Darmstadt). Purification of core dimer protein was performed using a sequence of size exclusion chromatography steps. In brief, the cell pellet from 1 L BL21 (DE3) Rosetta2 culture expressing the coding sequence of core protein cloned NdeI/XhoI into expression plasmid pET21b was treated for 1 h on ice with a native lysis buffer (Qproteome Bacterial Protein Prep Kit; Qiagen, Hilden). After a centrifugation step the supernatant was precipitated during 2 h stirring on ice with 0.23 g/ml of solid ammonium sulfate. Following further centrifugation the resulting pellet was resolved in buffer A (100 mM Tris, pH 7.5; 100 mM NaCl; 2 mM DTT) and was subsequently loaded onto a buffer A equilibrated CaptoCore 700 column (GE HealthCare, Frankfurt). The column flow through containing the assembled HBV capsid was dialyzed against buffer N (50 mM NaHCO3 pH 9.6; 5 mM DTT) before urea was added to a final concentration of 3M to dissociate the capsid into core dimers for 1.5 h on ice. The protein solution was then loaded onto a 1 L Sephacryl S300 column. After elution with buffer N core dimer containing fractions were identified by SDS-PAGE and subsequently pooled and dialyzed against 50 mM HEPES pH 7.5; […]. To improve the assembly capacity of the purified core dimers a second round of assembly and disassembly starting with the addition of 5 M NaCl and including the size exclusion chromatography steps described above was performed. From the last chromatography step core dimer containing fractions were pooled and stored in aliquots at concentrations between 1.5 to 2.0 mg/ml at −80° C.
Immediately before labelling the core protein was reduced by adding freshly prepared DTT in a final concentration of 20 mM. After 40 min incubation on ice storage buffer and DTT was removed using a Sephadex G-25 column (GE HealthCare, Frankfurt) and 50 mM HEPES, pH 7.5. For labelling 1.6 mg/ml core protein was incubated at 4° C. and darkness overnight with BODIPY-FL maleimide (Invitrogen, Karlsruhe) in a final concentration of 1 mM. After labelling the free dye was removed by an additional desalting step using a Sephadex G-25 column. Labelled core dimers were stored in aliquots at 4° C. In the dimeric state the fluorescence signal of the labelled core protein is high and is quenched during the assembly of the core dimers to high molecular capsid structures. The screening assay was performed in black 384 well microtiter plates in a total assay volume of 10 μl using 50 mM HEPES pH 7.5 and 1.0 to 2.0 μM labelled core protein. Each screening compound was added in 8 different concentrations using a 0.5 log-unit serial dilution starting at a final concentration of 100 μM, 31.6 μM or 10 μM, In any case the DMSO concentration over the entire microtiter plate was 0.5%. The assembly reaction was started by the injection of NaCl to a final concentration of […] which induces the assembly process to approximately 25% of the maximal quenched signal. 6 min after starting the reaction the fluorescence signal was measured using a Clariostar plate reader (BMG Labtech, Ortenberg) with an excitation of 477 nm and an emission of 525 nm. As 100% and 0% assembly control HEPES buffer containing 2.5 M and 0 M NaCl was used. Experiments were performed thrice in triplicates. EC50 values were calculated by non-linear regression analysis using the Graph Pad Prism 6 software (GraphPad Software, La Jolla, USA).

HBV = assay: Determination of HBV DNA from the supernatants of HepAD38 cells (anti-HBV activity); type: cell-based, hepatitis B virus; details: Hepatitis B virus, 144 h; HBV DNA in HepAD38 supernatant, day 6, qPCR; read-out: Cell Activity (EC50)
Outline: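 HepAD38 cells, tetracycline withdrawn to induce HBV, treated with serial half-log compound dilutions; on day 6 HBV DNA purified from filtered supernatant and quantified by real-time PCR against HBV plasmid standards; EC50 from relative copy numbers by non-linear regression, three experiments in triplicate.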

[1] = Cell viability assay (AlamarBlue) in HepAD38 cells; details: human

T1 sequence (P03146 whole entry, looked up, the tested form may be a part): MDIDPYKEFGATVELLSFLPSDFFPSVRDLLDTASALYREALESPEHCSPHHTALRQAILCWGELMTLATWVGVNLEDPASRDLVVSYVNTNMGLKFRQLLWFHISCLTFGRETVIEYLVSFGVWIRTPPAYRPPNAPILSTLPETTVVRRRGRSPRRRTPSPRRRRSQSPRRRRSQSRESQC

SMILES	IC50 (HBV core protein) [µM]	EC50 (HBV) [µM]	CC50 at 6 days [1] [µM]
O=C(c1cc2ccccc2[nH]1)N1CCc2[nH]nc(C(=O)N3CC[C@H](O)C3)c2C1 [Example 157, (3S)-1-[5-(1H-indole-2-carbonyl)-1H,4H,5H,6H,7H-pyrazolo[4,3-c]pyridine-3-carbonyl]pyrrolidin-3-ol]	< 100	1 to 25	> 10
CCOC(=O)c1n[nH]c2c1CN(C(=O)c1cc3ccccc3[nH]1)CC2 [Example 140, ethyl 5-(1H-indole-2-carbonyl)-1H,4H,5H,6H,7H-pyrazolo[4,3-c]pyridine-3-carboxylate]	< 5	< 100	> 100
CN(CCO)C(=O)c1n[nH]c2c1CN(C(=O)c1cc3ccc(Br)cc3[nH]1)CC2 [Example 29, 5-(6-bromo-1H-indole-2-carbonyl)-N-(2-hydroxyethyl)-N-methyl-1H,4H,5H,6H,7H-pyrazolo[4,3-c]pyridine-3-carboxamide]	< 5	< 1	> 10
O=C(c1cc2ccccc2[nH]1)N1CCc2[nH]nc(C(=O)N3CC(CCO)C3)c2C1 [Example 44, 2-{1-[5-(1H-indole-2-carbonyl)-1H,4H,5H,6H,7H-pyrazolo[4,3-c]pyridine-3-carbonyl]azetidin-3-yl}ethan-1-ol]	< 100	1 to 25	> 100
Cc1cc(F)cc2[nH]c(C(=O)N3CCc4[nH]nc(C(=O)N(C)CCO)c4C3)cc12 [Example 61, 5-(6-fluoro-4-methyl-1H-indole-2-carbonyl)-N-(2-hydroxyethyl)-N-methyl-1H,4H,5H,6H,7H-pyrazolo[4,3-c]pyridine-3-carboxamide]	< 5	< 1	> 100
CCc1cccc2[nH]c(C(=O)N3CCc4[nH]nc(C(=O)N(C)C5(COC)CC5)c4C3)cc12 [Example 270, 5-(4-ethyl-1H-indole-2-carbonyl)-N-[1-(methoxymethyl)cyclopropyl]-N-methyl-1H,4H,5H,6H,7H-pyrazolo[4,3-c]pyridine-3-carboxamide]	< 5	< 1	> 10
CN(C(=O)c1[nH]nc2c1CN(C(=O)c1cc3cc(F)c(Cl)cc3[nH]1)CC2)C1CC1 [Example 329, 5-(6-chloro-5-fluoro-1H-indole-2-carbonyl)-N-cyclopropyl-N-methyl-2H,4H,5H,6H,7H-pyrazolo[4,3-c]pyridine-3-carboxamide]	< 5	< 1	> 10
CN(CCO)C(=O)c1n[nH]c2c1CN(C(=O)c1cc3c(C(F)F)cc(F)cc3[nH]1)CC2 [Example 3, 5-[4-(difluoromethyl)-6-fluoro-1H-indole-2-carbonyl]-N-(2-hydroxyethyl)-N-methyl-1H,4H,5H,6H,7H-pyrazolo[4,3-c]pyridine-3-carboxamide]	< 5	< 1	> 10
COCC1(N(C)C(=O)c2n[nH]c3c2CN(C(=O)c2cc4c(F)c(F)ccc4[nH]2)CC3)CC1 [Example 267, 5-(4,5-difluoro-1H-indole-2-carbonyl)-N-[1-(methoxymethyl)cyclopropyl]-N-methyl-1H,4H,5H,6H,7H-pyrazolo[4,3-c]pyridine-3-carboxamide]	< 5	< 1	> 10
C#CCN(C)C(=O)c1n[nH]c2c1CN(C(=O)c1cc3ccccc3[nH]1)CC2 [Example 312, 5-(1H-indole-2-carbonyl)-N-methyl-N-(prop-2-yn-1-yl)-1H,4H,5H,6H,7H-pyrazolo[4,3-c]pyridine-3-carboxamide]	< 5	< 1	> 10
CCc1cc(F)cc2[nH]c(C(=O)N3CCc4[nH]nc(C(=O)N(C)CCO)c4C3)cc12 [Example 10, 5-(4-ethyl-6-fluoro-1H-indole-2-carbonyl)-N-(2-hydroxyethyl)-N-methyl-1H,4H,5H,6H,7H-pyrazolo[4,3-c]pyridine-3-carboxamide]	< 5	< 1	> 10
O=C(c1cc2c(Cl)cc(F)cc2[nH]1)N1CCc2[nH]nc(C3CCCO3)c2C1 (stereo not drawn) [Example 341, 4-chloro-6-fluoro-2-[3-(oxolan-2-yl)-1H,4H,5H,6H,7H-pyrazolo[4,3-c]pyridine-5-carbonyl]-1H-indole]	< 5	< 1	> 10
Cc1cc(F)cc2[nH]c(C(=O)N3CCc4[nH]nc(C56CC(C5)C6)c4C3)cc12 [Example 336, 2-(3-{bicyclo[1.1.1]pentan-1-yl}-1H,4H,5H,6H,7H-pyrazolo[4,3-c]pyridine-5-carbonyl)-6-fluoro-4-methyl-1H-indole]	< 5	< 1	> 10
O=C(c1cc2ccccc2[nH]1)N1CCc2[nH]nc(C(=O)N3CCC[C@@H](O)C3)c2C1 [Example 161, (3R)-1-[5-(1H-indole-2-carbonyl)-1H,4H,5H,6H,7H-pyrazolo[4,3-c]pyridine-3-carbonyl]piperidin-3-ol]	5 to 10	< 1	> 10
CN(C(=O)c1[nH]nc2c1CN(C(=O)c1cc3c(Cl)cccc3[nH]1)CC2)C1CC1 [Example 326, 5-(4-chloro-1H-indole-2-carbonyl)-N-cyclopropyl-N-methyl-2H,4H,5H,6H,7H-pyrazolo[4,3-c]pyridine-3-carboxamide]	< 5	< 1	> 10
CON(C)C(=O)c1n[nH]c2c1CN(C(=O)c1cc3c(Cl)cccc3[nH]1)CC2 [Example 113, 5-(4-chloro-1H-indole-2-carbonyl)-N-methoxy-N-methyl-1H,4H,5H,6H,7H-pyrazolo[4,3-c]pyridine-3-carboxamide]	< 5	< 1	> 100
CN(Cc1cn(C)nn1)C(=O)c1n[nH]c2c1CN(C(=O)c1cc3ccccc3[nH]1)CC2 [Example 316, 5-(1H-indole-2-carbonyl)-N-methyl-N-[(1-methyl-1H-1,2,3-triazol-4-yl)methyl]-1H,4H,5H,6H,7H-pyrazolo[4,3-c]pyridine-3-carboxamide]	< 5	1 to 25	> 10
COCC1(N(C)C(=O)c2n[nH]c3c2CN(C(=O)c2cc4cc(F)cc(F)c4[nH]2)CC3)CC1 [Example 309, 5-(5,7-difluoro-1H-indole-2-carbonyl)-N-[1-(methoxymethyl)cyclopropyl]-N-methyl-1H,4H,5H,6H,7H-pyrazolo[4,3-c]pyridine-3-carboxamide]	< 5	< 1	> 10
Cc1cc(F)cc2[nH]c(C(=O)N3CCc4[nH]ncc4C3)cc12 [Example 135, 6-fluoro-4-methyl-2-{1H,4H,5H,6H,7H-pyrazolo[4,3-c]pyridine-5-carbonyl}-1H-indole]	< 5	< 1	> 100
CN(C(=O)c1n[nH]c2c1CN(C(=O)c1cc3c(Cl)cccc3[nH]1)CC2)C1(CO)CC1 [Example 290, 5-(4-chloro-1H-indole-2-carbonyl)-N-[1-(hydroxymethyl)cyclopropyl]-N-methyl-1H,4H,5H,6H,7H-pyrazolo[4,3-c]pyridine-3-carboxamide]	< 5	< 1	> 10
